Series [1] addresses T1, bovine heart pyruvate dehydrogenase complex (Bos taurus, UniProt A7MB35+F1N206+P11966).
T1 construct: overall NADH-forming activity assayed at 340 nm
Description: Purified bovine heart pyruvate dehydrogenase complex with RAP. Format: biochemical. The conditions noted are these: 20 μM RAP. The text has this: (§1) Enzymes and enzyme assays. Rabbit muscle glyceraldehyde-3-phosphate dehydrogenase (80 U/mg: ammonium sulfate suspension), rabbit muscle glycerol-3-phosphate dehydrogenase (40 U/mg; ammonium sulfate suspension),beef liver glutamate dehydrogenase (120 U/mg: in 50% glycerol), mitochondrial pig heart malate dehydrogenase (1100 U/mg; in 50% glycerol) and yeast hexokinase (140 U/mg; ammonium sulfate suspension) were purchased from Boehringer Mannheim Corp. (Indianapolis). Beef heart lactate dehydrogenase (280 U/mg) was purchased from Worthington Biochemical Corporation (Freehold, N.J.). Porcine heart L-alanine aminotransferase (130 U/mg), rabbit muscle phosphofructokinase (140 U/mg; ammonium sulfate suspension), bovine heart α-ketoglutarate (8 U/mg) and pyruvate (5 U/mg) dehydrogenase complexes, sodium pyruvate, L-methionine-SR-sulfoximine, DL-vinylglycine, NAD^+, NADH and NAD^+ analogues (3-acetylpyridine, thionicotinamide, and 3-pyridinealdehyde adenine dinucleotides) were purchased from Sigma Chemical Company (St. Louis, Mo.).
(§2) Each of the enzymes was assayed by procedures in which change of absorbance at 340 nm due to NADH was followed essentially as described by Bergmeyer (1974, Methods of Enzymatic Analysis, 2nd Eng. Ed., Verlag Chemie Weinheim Academic Press, N.Y.) with the following exceptions. […]

A short description of series [2]: Stability of pyruvate adducts in solution and on storage. Format: physicochemical. As to conditions: neutral ph solution; neutral pH values; read-out: t1/2 of reversion to free pyruvate. How it is done:
The procedure used was a modification of that of Everse et al (1971, supra) for the synthesis of the NAD-pyruvate adduct Sodium pyruvate (15 mg) and NAD^+ (or NAD^+ analogue) (100 mg) were dissolved in deaerated water. The pH was brought to 11.0 with concentrated NaOH. After standing at room temperature for one hour, the solution was applied to the top of a column of Whatman DE-52 (2×3 cm), washed with deaerated distilled water. The column was eluted with 30 ml of 25 mM ammonium bicarbonate at 4° C. Unreacted pyruvate, NAD^+ and NAD^+ analogues were eluted in this fraction. The highly-colored (yellow-orange) adducts were eluted with 5-6 ml of 25 mM ammonium bicarbonate containing 4% NaCl. The fraction was split into approximately 1 ml portions, flushed with nitrogen, and stored at -70° C. […] Nevertheless, under the slightly alkaline conditions of storage and low temperature, these adducts remained stable for at least 3 months as judged by their continued potency toward inhibition of lactate dehydrogenase and maintenance of absorbance at 340 nm. […] The presence of a reactive carbonyl function was monitored as follows: 0.2-0.3 μ mole of the adduct was added to 50 μl of 0.1% 2,4-dinitrophenylhdrazine in 2 M HCl. […] The absorbance at 430 nm was compared to equivalent amounts of pyruvate and NAD^+ analogue taken through the same procedure. […]

Series [3] addresses T2, mitochondrial pig heart malate dehydrogenase (Sus scrofa, UniProt P00346).
T2 construct: purchased Boehringer Mannheim Corp. (Indianapolis); host or cells: pig heart
Description: Commercial mitochondrial malate dehydrogenase with RAP. The class given is biochemical. The conditions noted are these: 20 μM RAP.
Description: as §1, §2

As usually defined, the inhibition is the relative decrease from the control value, in per cent.

T2 sequence (P00346 25-338): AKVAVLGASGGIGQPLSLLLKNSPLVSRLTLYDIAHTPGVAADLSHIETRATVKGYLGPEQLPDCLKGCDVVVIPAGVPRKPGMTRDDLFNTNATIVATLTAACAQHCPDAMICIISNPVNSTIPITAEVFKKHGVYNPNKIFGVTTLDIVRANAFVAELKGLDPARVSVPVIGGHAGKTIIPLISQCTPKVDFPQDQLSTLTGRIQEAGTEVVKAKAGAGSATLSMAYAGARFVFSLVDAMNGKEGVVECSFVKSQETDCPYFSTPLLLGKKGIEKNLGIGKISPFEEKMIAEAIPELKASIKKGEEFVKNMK
T1 sequence (A7MB35 30-390): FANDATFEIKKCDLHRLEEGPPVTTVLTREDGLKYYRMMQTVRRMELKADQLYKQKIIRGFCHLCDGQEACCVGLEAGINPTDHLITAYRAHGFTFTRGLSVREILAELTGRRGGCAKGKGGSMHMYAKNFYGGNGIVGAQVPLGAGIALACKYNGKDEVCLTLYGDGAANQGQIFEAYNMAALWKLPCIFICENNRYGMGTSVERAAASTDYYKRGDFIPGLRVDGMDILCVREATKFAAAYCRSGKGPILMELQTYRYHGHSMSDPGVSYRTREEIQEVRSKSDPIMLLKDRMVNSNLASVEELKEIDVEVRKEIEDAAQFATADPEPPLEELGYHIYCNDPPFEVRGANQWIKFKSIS
T1 sequence (P11966 31-359): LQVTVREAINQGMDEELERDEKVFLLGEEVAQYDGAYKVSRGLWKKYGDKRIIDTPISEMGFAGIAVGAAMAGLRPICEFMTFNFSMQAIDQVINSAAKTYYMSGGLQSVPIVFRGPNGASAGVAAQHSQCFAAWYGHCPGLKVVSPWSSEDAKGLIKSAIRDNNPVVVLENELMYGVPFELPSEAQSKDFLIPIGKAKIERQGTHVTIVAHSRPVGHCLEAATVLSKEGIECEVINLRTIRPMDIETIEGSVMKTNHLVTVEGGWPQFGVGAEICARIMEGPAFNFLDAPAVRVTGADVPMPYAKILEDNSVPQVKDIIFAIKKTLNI
T1 sequence (F1N206 36-509): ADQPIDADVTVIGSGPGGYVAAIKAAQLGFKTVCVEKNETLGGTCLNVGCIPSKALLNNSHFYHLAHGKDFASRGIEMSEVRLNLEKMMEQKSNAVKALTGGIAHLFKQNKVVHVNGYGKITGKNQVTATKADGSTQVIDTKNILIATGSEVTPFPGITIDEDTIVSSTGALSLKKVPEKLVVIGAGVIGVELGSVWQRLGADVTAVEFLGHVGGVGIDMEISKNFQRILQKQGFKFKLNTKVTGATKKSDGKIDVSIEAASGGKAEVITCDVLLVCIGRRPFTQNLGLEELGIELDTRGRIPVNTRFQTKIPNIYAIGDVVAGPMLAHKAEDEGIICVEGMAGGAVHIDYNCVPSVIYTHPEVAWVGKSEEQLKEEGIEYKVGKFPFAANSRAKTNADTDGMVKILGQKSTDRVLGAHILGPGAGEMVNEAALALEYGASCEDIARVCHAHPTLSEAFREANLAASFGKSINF
T1 sequence (P11180 87-647 partner): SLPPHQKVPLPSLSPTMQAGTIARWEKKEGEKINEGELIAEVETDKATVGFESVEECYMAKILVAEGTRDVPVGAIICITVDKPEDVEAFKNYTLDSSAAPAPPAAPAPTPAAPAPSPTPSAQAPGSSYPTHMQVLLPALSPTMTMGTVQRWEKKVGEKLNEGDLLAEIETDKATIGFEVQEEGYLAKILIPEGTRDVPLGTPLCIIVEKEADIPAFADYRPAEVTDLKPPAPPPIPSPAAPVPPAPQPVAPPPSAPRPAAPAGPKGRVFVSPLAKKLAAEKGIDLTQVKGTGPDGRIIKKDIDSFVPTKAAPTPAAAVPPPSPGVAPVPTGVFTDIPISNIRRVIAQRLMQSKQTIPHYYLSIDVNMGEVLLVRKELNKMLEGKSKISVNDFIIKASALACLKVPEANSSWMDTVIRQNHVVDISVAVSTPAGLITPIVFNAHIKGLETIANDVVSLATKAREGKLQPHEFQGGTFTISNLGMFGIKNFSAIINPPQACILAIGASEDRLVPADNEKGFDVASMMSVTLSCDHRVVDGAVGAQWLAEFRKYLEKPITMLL
T1 sequence (P22439 54-501 partner): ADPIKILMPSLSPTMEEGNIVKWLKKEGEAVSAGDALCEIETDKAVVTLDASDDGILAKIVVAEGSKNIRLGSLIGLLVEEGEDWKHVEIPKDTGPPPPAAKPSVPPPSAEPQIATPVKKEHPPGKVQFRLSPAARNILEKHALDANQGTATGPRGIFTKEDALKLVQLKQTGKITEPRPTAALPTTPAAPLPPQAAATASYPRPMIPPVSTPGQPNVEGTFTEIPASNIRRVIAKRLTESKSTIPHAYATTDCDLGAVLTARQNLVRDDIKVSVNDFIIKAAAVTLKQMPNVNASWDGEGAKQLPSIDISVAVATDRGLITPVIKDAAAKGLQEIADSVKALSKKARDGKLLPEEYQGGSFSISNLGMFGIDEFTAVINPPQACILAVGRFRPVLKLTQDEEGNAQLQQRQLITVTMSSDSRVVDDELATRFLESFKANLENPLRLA

Regarding `Nc1ncnc2c1ncn2[C@@H]1O[C@H](COP(=O)(O)OP(=O)(O)OC[C@H]2O[C@@H](N3C=CC(CC(=O)C(=O)O)C(C=O)=C3)[C@H](O)[C@@H]2O)[C@@H](O)[C@H]1O` (stereo partly drawn) [RAP, 3(-4-(reduced 3-pyridinealdehyde-adeninedinucleotide))-pyruvate], the “effect on purified bovine heart pyruvate dehydrogenase complex” value in series [1] is on record as “nor did 20 μM RAP inhibit”. Also, the half-life in series [2] amounted to 1.5 h. In addition, in series [3], the inhibition at 20 µM was not above 20%.
